In patent US20100311714A1, “1H-IMIDAZO[4,5-c]QUINOLINONE COMPOUNDS” (priority 2009, published 2010):
Like-named read-outs stand apart in the source and are kept apart here.

Experiments:
mTOR = biological target: T1, mTOR (Homo sapiens, UniProt P42345); assay: Biochemical assay for m-TOR by TR-FRET
T1 construct: purchased Invitrogen Corporation (Carlsbad/Calif., USA) PV4753
Summary of the method: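 mTOR (0.5 nM) phosphorylates GFP-4EBP1 (400 nM) with 8 μM ATP at rt in 50 mM HEPES pH 7.5, 10 mM MnCl2, 50 mM NaCl, 1 mM EGTA, 1 mM DTT; compounds 0.003–10 μM final. EDTA stop with Tb-anti-p4EBP1[pT46] antibody (0.5 nM); TR-FRET read after 15 min against no-enzyme and vehicle controls.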

PI3K beta = biological target: T2, PI3K beta (Homo sapiens, UniProt P42338); assay: PI3K beta kinase assay (Kinase-Glo luminescence); assay type: biochemical
T2 construct: for the full-length p110-b subunit are generated and fused by overlapping PCR; His tag (C); made in house; host or cells: baculovirus BV949; Tn5 (Trichoplusia ni) or TiniPro insect cells
Summary of the method: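 Kinase-Glo luminescence read out ATP left after a 60-min room-temperature reaction, started with ATP (1 μM final) on 25 nM His-tagged p85 iSH2–p110β (BV949) plus 10 μg/mL PI substrate in pH 7.5 Tris buffer. Percent inhibition at eight concentrations was fitted to a four-parameter logistic model for IC50.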

[1] = Parallel Artificial Membrane Permeability Assay (PAMPA) at pH 6.8; assay type: physicochemical
Summary of the method: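 Reported as log Pe, membrane permeability was determined by parallel artificial membrane assay at pH 6.8 per Wohnsland–Faller.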

T2 sequence (P42338 with tags, fused parts or gaps limits assumed): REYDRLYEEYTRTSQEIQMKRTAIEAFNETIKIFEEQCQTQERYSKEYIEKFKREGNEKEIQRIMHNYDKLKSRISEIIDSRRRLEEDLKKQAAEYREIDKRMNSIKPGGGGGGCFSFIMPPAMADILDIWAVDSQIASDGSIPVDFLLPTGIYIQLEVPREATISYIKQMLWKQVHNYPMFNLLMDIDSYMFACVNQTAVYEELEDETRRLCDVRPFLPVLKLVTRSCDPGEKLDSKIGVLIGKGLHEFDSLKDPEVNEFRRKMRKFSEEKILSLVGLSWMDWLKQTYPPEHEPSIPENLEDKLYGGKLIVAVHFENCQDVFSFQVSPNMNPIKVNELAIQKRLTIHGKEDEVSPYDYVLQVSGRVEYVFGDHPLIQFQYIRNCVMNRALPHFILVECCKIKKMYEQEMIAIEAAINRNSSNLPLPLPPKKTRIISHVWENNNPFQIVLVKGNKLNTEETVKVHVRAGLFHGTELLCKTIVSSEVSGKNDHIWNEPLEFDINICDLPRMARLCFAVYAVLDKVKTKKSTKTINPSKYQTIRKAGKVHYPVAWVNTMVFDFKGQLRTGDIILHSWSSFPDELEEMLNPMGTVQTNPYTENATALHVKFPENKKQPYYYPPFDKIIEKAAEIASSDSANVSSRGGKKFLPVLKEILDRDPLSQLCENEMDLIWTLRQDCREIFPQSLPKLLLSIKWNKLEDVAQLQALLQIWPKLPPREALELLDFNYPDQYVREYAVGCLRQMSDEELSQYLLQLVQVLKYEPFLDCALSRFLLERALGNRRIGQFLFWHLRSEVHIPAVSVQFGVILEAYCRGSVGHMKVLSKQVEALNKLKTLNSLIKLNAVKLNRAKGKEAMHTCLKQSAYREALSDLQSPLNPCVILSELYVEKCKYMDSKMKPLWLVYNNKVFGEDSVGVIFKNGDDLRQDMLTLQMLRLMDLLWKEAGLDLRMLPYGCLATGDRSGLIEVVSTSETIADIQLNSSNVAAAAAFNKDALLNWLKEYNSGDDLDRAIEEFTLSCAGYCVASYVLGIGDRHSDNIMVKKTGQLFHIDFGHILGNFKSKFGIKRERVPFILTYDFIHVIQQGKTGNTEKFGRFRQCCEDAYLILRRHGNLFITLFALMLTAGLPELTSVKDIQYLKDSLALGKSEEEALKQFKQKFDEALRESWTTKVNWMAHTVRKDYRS
T1 sequence (P42345 1360-2549 limits assumed): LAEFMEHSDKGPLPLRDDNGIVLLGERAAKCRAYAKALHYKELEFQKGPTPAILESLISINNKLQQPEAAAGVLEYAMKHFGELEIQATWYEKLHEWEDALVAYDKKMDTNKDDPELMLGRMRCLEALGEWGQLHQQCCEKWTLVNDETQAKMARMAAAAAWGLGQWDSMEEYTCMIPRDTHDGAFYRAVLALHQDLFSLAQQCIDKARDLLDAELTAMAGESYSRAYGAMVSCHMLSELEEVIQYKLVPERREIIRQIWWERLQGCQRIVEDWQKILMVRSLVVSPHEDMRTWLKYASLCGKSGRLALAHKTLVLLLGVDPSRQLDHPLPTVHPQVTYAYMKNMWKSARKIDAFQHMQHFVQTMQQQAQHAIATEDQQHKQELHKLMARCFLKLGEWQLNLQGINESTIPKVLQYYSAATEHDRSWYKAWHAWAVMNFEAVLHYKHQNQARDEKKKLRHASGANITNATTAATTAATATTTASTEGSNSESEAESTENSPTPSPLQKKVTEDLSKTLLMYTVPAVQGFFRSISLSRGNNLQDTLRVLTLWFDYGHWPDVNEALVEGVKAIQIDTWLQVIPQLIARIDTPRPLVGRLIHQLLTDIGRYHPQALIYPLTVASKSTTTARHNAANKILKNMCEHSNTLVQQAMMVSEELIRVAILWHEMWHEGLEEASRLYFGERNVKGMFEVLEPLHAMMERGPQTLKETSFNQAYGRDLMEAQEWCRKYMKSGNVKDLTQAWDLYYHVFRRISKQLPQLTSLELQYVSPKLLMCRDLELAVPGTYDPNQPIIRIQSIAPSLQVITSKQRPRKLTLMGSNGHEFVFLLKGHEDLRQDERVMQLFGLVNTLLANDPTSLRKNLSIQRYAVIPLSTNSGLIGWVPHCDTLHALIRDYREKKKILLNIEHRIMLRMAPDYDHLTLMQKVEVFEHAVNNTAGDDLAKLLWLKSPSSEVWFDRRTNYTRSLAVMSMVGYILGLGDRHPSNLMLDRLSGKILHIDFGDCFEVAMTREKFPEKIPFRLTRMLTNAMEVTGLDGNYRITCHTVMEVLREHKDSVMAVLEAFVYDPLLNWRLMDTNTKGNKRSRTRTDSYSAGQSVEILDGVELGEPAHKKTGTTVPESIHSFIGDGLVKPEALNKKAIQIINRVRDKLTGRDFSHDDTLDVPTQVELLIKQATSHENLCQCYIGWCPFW

Structure (SMILES) | IC50 (mTOR; read-out: EPK_mTOR/IC50) [nM] | IC50 (PI3K beta; read-out: EPK_PI3Kbeta/IC50) [nM] | HT-Perm logPe pH6.8 [1] | IC50 (mTOR; read-out: mTOR/IC50) [nM] | IC50 (PI3K beta; read-out: PI3Kbeta/IC50) [nM] | HT-perm/logPe pH6.8 [1]
CNc1ncc(-c2ccc3ncc4c(c3c2)n(-c2ccc(C)nc2C)c(=O)n4C)cn1 [Example 14.4, 1-(2,6-Dimethyl-pyridin-3-yl)-3-methyl-8-(2-methylamino-pyrimidin-5-yl)-1,3-dihydro-imidazo[4,5-c]quinolin-2-one] | 14 | 282 | −4.6 | – | – | –
Cc1ncccc1-n1c(=O)n(C)c2cnc3ccc(-c4cnc5c(ccn5C)c4)cc3c21 [Example 2.14, 3-Methyl-1-(2-methyl-pyridin-3-yl)-8-(1-methyl-1H-pyrrolo[2,3-b]pyridin-5-yl)-1,3-dihydro-imidazo[4,5-c]quinolin-2-one] | – | – | – | 24 | 315 | −3.9
CNc1ncc(-c2ccc3ncc4c(c3c2)n(-c2ccc(F)nc2C)c(=O)n4C)cc1F [Example 7.12, 8-(5-Fluoro-6-methylamino-pyridin-3-yl)-1-(6-fluoro-2-methyl-pyridin-3-yl)-3-methyl-1,3-dihydro-imidazo[4,5-c]quinolin-2-one] | 66 | 265 | −3.7 | – | – | –
CNc1cc(-c2ccc3ncc4c(c3c2)n(-c2ccc(N(C)C)nc2C)c(=O)n4C)cnc1C [Example 19.2, 1-(6-Dimethylamino-2-methyl-pyridin-3-yl)-3-methyl-8-(6-methyl-5-methylamino-pyridin-3-yl)-1,3-dihydro-imidazo[4,5-c]quinolin-2-one] | 9 | 68 | −4.1 | – | – | –
COCCN(C)c1ccc(-n2c(=O)n(C)c3cnc4ccc(-c5cnc(CO)c(OC)c5)cc4c32)c(C)n1 [Example 15.9, 8-(6-Hydroxymethyl-5-methoxy-pyridin-3-yl)-1-{6-[(2-methoxy-ethyl)-methyl-amino]-2-methyl-pyridin-3-yl}-3-methyl-1,3-dihydro-imidazo[4,5-c]quinolin-2-one] | 119 | 15 | – | – | – | –
CNc1ncc(-c2ccc3ncc4c(c3c2)n(-c2cnc(F)cc2C)c(=O)n4C)cn1 [Example 16.3, 1-(6-Fluoro-4-methyl-pyridin-3-yl)-3-methyl-8-(2-methylamino-pyrimidin-5-yl)-1,3-dihydro-imidazo[4,5-c]quinolin-2-one] | 151 | 1180 | −4.4 | – | – | –
Cc1cc(F)ncc1-n1c(=O)n(C)c2cnc3ccc(-c4cnc5c(ccn5C)c4)cc3c21 [Example 16.5, 1-(6-Fluoro-4-methyl-pyridin-3-yl)-3-methyl-8-(1-methyl-1H-pyrrolo[2,3-b]pyridin-5-yl)-1,3-dihydro-imidazo[4,5-c]quinolin-2-one] | 622 | 261 | −3.7 | – | – | –
COc1ccc(-n2c(=O)n(C)c3cnc4ccc(-c5ccc6nccn6c5)cc4c32)c(OC)n1 [Example 8.10, 1-(2,6-Dimethoxy-pyridin-3-yl)-8-imidazo[1,2-a]pyridin-6-yl-3-methyl-1,3-dihydro-imidazo[4,5-c]quinolin-2-one] | 470 | 1340 | −3.9 | – | – | –
Cc1ccc(-n2c(=O)n(C)c3cnc4ccc(-c5cnc(N(C)C)nc5)cc4c32)c(C)n1 [Example 14.3, 8-(2-Dimethylamino-pyrimidin-5-yl)-1-(2,6-dimethyl-pyridin-3-yl)-3-methyl-1,3-dihydro-imidazo[4,5-c]quinolin-2-one] | 48 | 396 | −3.8 | – | – | –
CCOc1ccc(-c2ccc3ncc4c(c3c2)n(-c2ccc(OCCOC)nc2C)c(=O)n4C)cn1 [Example 13.1, 8-(6-Ethoxy-pyridin-3-yl)-1-[6-(2-methoxy-ethoxy)-2-methyl-pyridin-3-yl]-3-methyl-1,3-dihydro-imidazo[4,5-c]quinolin-2-one] | 49 | 1950 | −4 | – | – | –
COCC(=O)Nc1ccc(-n2c(=O)n(C)c3cnc4ccc(-c5cncc(OC(C)C)c5)cc4c32)c(C)n1 [Example 20.5, N-{5-[8-(5-Isopropoxy-pyridin-3-yl)-3-methyl-2-oxo-2,3-dihydro-imidazo[4,5-c]quinolin-1-yl]-6-methyl-pyridin-2-yl}-2-methoxy-acetamide] | 900 | 542 | – | – | – | –
CCNc1cc(-c2ccc3ncc4c(c3c2)n(-c2ccc(N3CC(F)(F)C3)nc2C)c(=O)n4C)cnc1CO [Example 24.3, 1-[6-(3,3-Difluoro-azetidin-1-yl)-2-methyl-pyridin-3-yl]-8-(5-ethylamino-6-hydroxymethyl-pyridin-3-yl)-3-methyl-1,3-dihydro-imidazo[4,5-c]quinolin-2-one] | < 3 | 27 | – | – | – | –
COc1ncccc1-n1c(=O)n(C)c2cnc3ccc(-c4cnc(N(C)C)nc4)cc3c21 [Example 1.9, 8-(2-Dimethylamino-pyrimidin-5-yl)-1-(2-methoxy-pyridin-3-yl)-3-methyl-1,3-dihydro-imidazo[4,5-c]quinolin-2-one] | – | – | – | 14 | – | −3.3
COc1ccc(-c2ccc3ncc4c(c3c2)n(-c2ncccc2C)c(=O)n4C)cn1 [Example 3.13, 8-(6-Methoxy-pyridin-3-yl)-3-methyl-1-(3-methyl-pyridin-2-yl)-1,3-dihydro-imidazo[4,5-c]quinolin-2-one] | – | – | – | – | – | −3.7
CCOc1ccc(-c2ccc3ncc4c(c3c2)n(-c2ccc(N(C)C)nc2C)c(=O)n4C)cn1 [Example 19.3, 1-(6-Dimethylamino-2-methyl-pyridin-3-yl)-8-(6-ethoxy-pyridin-3-yl)-3-methyl-1,3-dihydro-imidazo[4,5-c]quinolin-2-one] | – | 1970 | −4.4 | – | – | –
COc1ncccc1-n1c(=O)n(C)c2cnc3ccc(-c4cnc5c(ccn5C)c4)cc3c21 [Example 1.7, 1-(2-Methoxy-pyridin-3-yl)-3-methyl-8-(1-methyl-1H-pyrrolo[2,3-b]pyridin-5-yl)-1,3-dihydro-imidazo[4,5-c]quinolin-2-one] | – | – | – | 16 | – | −3.8
Cc1cccnc1-n1c(=O)n(C)c2cnc3ccc(-c4cnc5ccccc5c4)cc3c21 [Example 3.8, 3-Methyl-1-(3-methyl-pyridin-2-yl)-8-quinolin-3-yl-1,3-dihydro-imidazo[4,5-c]quinolin-2-one] | – | – | – | 544 | – | −3.9
COCCOc1ccc(-n2c(=O)n(C)c3cnc4ccc(-c5cncc(N6CCC6)c5)cc4c32)c(C)n1 [Example 22.2, 8-(5-Azetidin-1-yl-pyridin-3-yl)-1-[6-(2-methoxy-ethoxy)-2-methyl-pyridin-3-yl]-3-methyl-1,3-dihydro-imidazo[4,5-c]quinolin-2-one] | 21 | 746 | – | – | – | –
CNc1ccc(-c2ccc3ncc4c(c3c2)n(-c2ccc(NC(=O)COC)nc2C)c(=O)n4C)cn1 [Example 20.4, 2-Methoxy-N-{6-methyl-5-[3-methyl-8-(6-methylamino-pyridin-3-yl)-2-oxo-2,3-dihydro-imidazo[4,5-c]quinolin-1-yl]-pyridin-2-yl}-acetamide] | 11 | 592 | – | – | – | –
COc1ncccc1-n1c(=O)n(C)c2cnc3ccc(-c4ccc(F)nc4)cc3c21 [Example 1.8, 8-(6-Fluoro-pyridin-3-yl)-1-(2-methoxy-pyridin-3-yl)-3-methyl-1,3-dihydro-imidazo[4,5-c]quinolin-2-one] | – | – | – | 87 | – | −3.7
COc1ccc(-n2c(=O)n(C)c3cnc4ccc(-c5cnc(N)c(C(F)(F)F)c5)cc4c32)c(OC)n1 [Example 8.1, 8-(6-Amino-5-trifluoromethyl-pyridin-3-yl)-1-(2,6-dimethoxy-pyridin-3-yl)-3-methyl-1,3-dihydro-imidazo[4,5-c]quinolin-2-one] | – | – | – | – | 23 | −4.1
Cc1nc(F)ccc1-n1c(=O)n(C)c2cnc3ccc(-c4cnc(N)c(CO)c4)cc3c21 [Example 7.17, 8-(6-Amino-5-hydroxymethyl-pyridin-3-yl)-1-(6-fluoro-2-methyl-pyridin-3-yl)-3-methyl-1,3-dihydro-imidazo[4,5-c]quinolin-2-one] | 80 | 188 | – | – | – | –
CNc1ncc(-c2ccc3ncc4c(c3c2)n(-c2ccc(NC(=O)COC)nc2C)c(=O)n4C)cn1 [Example 20.3, 2-Methoxy-N-{6-methyl-5-[3-methyl-8-(2-methylamino-pyrimidin-5-yl)-2-oxo-2,3-dihydro-imidazo[4,5-c]quinolin-1-yl]-pyridin-2-yl}-acetamide] | 59 | 2760 | – | – | – | –
CCOc1ccc(-c2ccc3ncc4c(c3c2)n(-c2ccc(NC(=O)COC)nc2C)c(=O)n4C)cn1 [Example 20.2, N-{5-[8-(6-Ethoxy-pyridin-3-yl)-3-methyl-2-oxo-2,3-dihydro-imidazo[4,5-c]quinolin-1-yl]-6-methyl-pyridin-2-yl}-2-methoxy-acetamide] | 154 | 891 | – | – | – | –
COCCOc1ccc(-n2c(=O)n(C)c3cnc4ccc(-c5cnc(COC)c(OC)c5)cc4c32)c(C)n1 [Example 22.3, 1-[6-(2-Methoxy-ethoxy)-2-methyl-pyridin-3-yl]-8-(5-methoxy-6-methoxymethyl-pyridin-3-yl)-3-methyl-1,3-dihydro-imidazo[4,5-c]quinolin-2-one] | 140 | 122 | – | – | – | –
